Experimental data reported in PubChem BioAssay (NCI).
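Assay format: 96-well plates, 48-hour exposure. TGI: total growth inhibition.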

Columns and labels:
Experiment in all cases: NCI tumour cell line growth inhibition, 48 h
SR leukemia = system: SR leukemia
CCRF-CEM leukemia = system: CCRF-CEM leukemia
SNB-19 CNS = system: SNB-19 CNS
IGROV1 ovarian = system: IGROV1 ovarian
SK-MEL-28 melanoma = system: SK-MEL-28 melanoma
K-562 leukemia = system: K-562 leukemia
SF-295 CNS = system: SF-295 CNS
RPMI-8226 leukemia = system: RPMI-8226 leukemia
SW-620 colon = system: SW-620 colon
NCI-H23 lung = system: NCI-H23 lung
SK-MEL-5 melanoma = system: SK-MEL-5 melanoma
HS 578T breast = system: HS 578T breast
HCC-2998 colon = system: HCC-2998 colon
T-47D breast = system: T-47D breast
M14 melanoma = system: M14 melanoma
TK-10 renal = system: TK-10 renal
NCI-H522 lung = system: NCI-H522 lung
SK-OV-3 ovarian = system: SK-OV-3 ovarian
U251 CNS = system: U251 CNS
MDA-N = system: MDA-N
UACC-62 melanoma = system: UACC-62 melanoma
EKVX NSCLC = system: EKVX NSCLC
HCT-116 colon = system: HCT-116 colon
NCI/ADR-RES ovarian = system: NCI/ADR-RES ovarian
DU-145 prostate = system: DU-145 prostate
OVCAR-5 ovarian = system: OVCAR-5 ovarian
ACHN renal = system: ACHN renal
HT29 colon = system: HT29 colon
UACC-257 melanoma = system: UACC-257 melanoma
SF-268 CNS = system: SF-268 CNS
HL-60(TB) leukemia = system: HL-60(TB) leukemia
SF-539 CNS = system: SF-539 CNS
PC-3 prostate = system: PC-3 prostate
MALME-3M melanoma = system: MALME-3M melanoma
MCF7 breast = system: MCF7 breast
OVCAR-8 ovarian = system: OVCAR-8 ovarian
HCT-15 colon = system: HCT-15 colon
NCI-H460 lung = system: NCI-H460 lung
MDA-MB-435 = system: MDA-MB-435
MOLT-4 leukemia = system: MOLT-4 leukemia
SN12C renal = system: SN12C renal
RXF 393 renal = system: RXF 393 renal
MDA-MB-231 breast = system: MDA-MB-231 breast
KM12 colon = system: KM12 colon
HOP-62 NSCLC = system: HOP-62 NSCLC
OVCAR-3 ovarian = system: OVCAR-3 ovarian
OVCAR-4 ovarian = system: OVCAR-4 ovarian
LOX IMVI melanoma = system: LOX IMVI melanoma
NCI-H226 lung = system: NCI-H226 lung
CAKI-1 renal = system: CAKI-1 renal
HOP-92 NSCLC = system: HOP-92 NSCLC
COLO 205 colon = system: COLO 205 colon
SNB-75 CNS = system: SNB-75 CNS
BT-549 breast = system: BT-549 breast
A549 NSCLC = system: A549 NSCLC
SK-MEL-2 melanoma = system: SK-MEL-2 melanoma
786-0 renal = system: 786-0 renal
A498 renal = system: A498 renal
UO-31 renal = system: UO-31 renal

Measured: TGI

Cc1coc2c1C[C@@]1(C)[C@H](CCC[C@@H]1C)[C@H]2O
48.8 µM: RXF 393 renal
66.2 µM: HOP-92 NSCLC
90.5 µM: NCI-H522 lung
78.3 µM: ACHN renal
44.6 µM: HL-60(TB) leukemia
68.4 µM: OVCAR-4 ovarian
64.8 µM: SR leukemia
59.7 µM: MOLT-4 leukemia
28.9 µM: SK-MEL-5 melanoma
88.3 µM: UACC-257 melanoma
68.3 µM: NCI/ADR-RES ovarian
56 µM: NCI-H226 lung
55.5 µM: SN12C renal
84.2 µM: T-47D breast
55.9 µM: MDA-MB-231 breast
44.7 µM: MALME-3M melanoma
75.1 µM: HOP-62 NSCLC
65.4 µM: IGROV1 ovarian
62.8 µM: SF-539 CNS
57.8 µM: OVCAR-3 ovarian
56.3 µM: DU-145 prostate
95.7 µM: MCF7 breast
62.3 µM: RPMI-8226 leukemia
92.1 µM: MDA-MB-435
not listed: SNB-75 CNS | BT-549 breast | A549 NSCLC | SK-MEL-2 melanoma | 786-0 renal | A498 renal | UO-31 renal
> 100 µM: all other assays above

COc1ccc(C2N(c3ccc(F)cc3)C(=O)N3C(c4ccc(OC)cc4)N(c4ccc(F)cc4)C(=O)N23)cc1 (stereo not given)
not listed: K-562 leukemia | HCC-2998 colon | SK-OV-3 ovarian | MCF7 breast | MOLT-4 leukemia | NCI-H226 lung
> 100 µM: all other assays above
